One may read the KD as the free concentration of one partner at which half of the binding sites on the other are occupied at equilibrium, for simple one-to-one binding. Read a low KD as tighter binding. By Kd is commonly meant the free concentration of one partner at which half of the binding sites on the other are occupied at equilibrium, for simple one-to-one binding.

We go through 2 molecules from article PMC11101630.

Series [1] relates to RhoBAST WT (RNA, aptamer) GGAACCUCCGCGAAAGCGGUGAAGGAGAGGCGCAAGGUUAACCGCCUCAGGUUCC
Nature of the series: ITC. The conditions noted are these: K+ 100 mM, Mg2+ 0.5 mM; 20 mM Tris-HCl pH 7.5, 25 °C; no binding observed without Mg2+.

Series [2] has as its system RhoBAST A50U (RNA, aptamer) GGAACCUCCGCGAAAGCGGUGAAGGAGAGGCGCAAGGUUUACCGCCUCAGGUUCC
Kind of series: ITC. The conditions noted are these: K+ 100 mM; Mg2+ concentration not given; 20 mM Tris-HCl pH 7.5, 25 °C, nM inferred from ΔG.

Series [3] relates to RhoBAST A51U (RNA, aptamer) GGAACCUCCGCGAAAGCGGUGAAGGAGAGGCGCAAGGUUAUCCGCCUCAGGUUCC
Nature of the series: ITC. The conditions noted are these: K+ 100 mM; Mg2+ concentration not given; 20 mM Tris-HCl pH 7.5, 25 °C, nM inferred from ΔG.

For series [4], the system named is RhoBAST C52A (RNA, aptamer) GGAACCTCCGCGAAAGCGGUGAAGGAGAGGCGCAAGGUUAAACGCCUCAGGUUCC
Nature of the series: ITC. The conditions noted are these: K+ 100 mM; Mg2+ concentration not given; 20 mM Tris-HCl pH 7.5, 25 °C; 46 x K of WT.

Series [5] deals with RhoBAST A36C (RNA, aptamer) GGAACCUCCGCGAAAGCGGUGAAGGCGAGGCGCAAGGUUAACCGCCUCAGGUUCC
Kind of series: ITC. The conditions noted are these: K+ 100 mM; Mg2+ concentration not given; 20 mM Tris-HCl pH 7.5, 25 °C; 40 x K of WT.

Series [6] relates to RhoBAST U30C/A36C (RNA, aptamer) GGAACCUCCGCGAAAGCGGCGAAGGCGAGGCGCAAGGUUAACCGCCUCAGGUUCC
Kind of series: ITC. The conditions noted are these: K+ 100 mM; Mg2+ concentration not given; 20 mM Tris-HCl pH 7.5, 25 °C; 28 x K of WT.

Series [7] relates to RhoBAST A36U (RNA, aptamer) GGAACCUCCGCGAAAGCGGUGAAGGUGAGGCGCAAGGUUAACCGCCUCAGGUUCC
Kind of series: ITC. The conditions noted are these: K+ 100 mM; Mg2+ concentration not given; 20 mM Tris-HCl pH 7.5, 25 °C; 3.5 x K of WT.

The test system of series [8] is RhoBAST G46A (RNA, aptamer) GGAACCUCCGCGAAAGCGGUGAAGGAGAGGCGCAAAGUUAACCGCCUCAGGUUCC
Nature of the series: ITC. The conditions noted are these: K+ 100 mM; Mg2+ concentration not given; 20 mM Tris-HCl pH 7.5, 25 °C; 6.2 x K of WT.

Series [9] deals with RhoBAST G47A (RNA, aptamer) GGAACCUCCGCGAAAGCGGUGAAGGAGAGGCGCAAGAUUAACCGCCUCAGGUUCC
Kind of series: ITC. The conditions noted are these: K+ 100 mM; Mg2+ concentration not given; 20 mM Tris-HCl pH 7.5, 25 °C; 26.8 x K of WT.

The subject of series [10] is RhoBAST U48C (RNA, aptamer) GGAACCUCCGCGAAAGCGGUGAAGGAGAGGCGCAAGGCUAACCGCCUCAGGUUCC
Kind of series: ITC. The conditions noted are these: K+ 100 mM; Mg2+ concentration not given; 20 mM Tris-HCl pH 7.5, 25 °C; 1.3 x K of WT.

Series [11] deals with RhoBAST U49A (RNA, aptamer) GGAACCUCCGCGAAAGCGGUGAAGGAGAGGCGCAAGGUAAACCGCCUCAGGUUCC
Nature of the series: ITC. The conditions noted are these: K+ 100 mM; Mg2+ concentration not given; 20 mM Tris-HCl pH 7.5, 25 °C; 100 x K of WT.

For series [12], the system named is RhoBAST A33G (RNA, aptamer) GGAACCUCCGCGAAAGCGGUGAGGGAGAGGCGCAAGGUUAACCGCCUCAGGUUCC
Kind of series: ITC. The conditions noted are these: K+ 100 mM; Mg2+ concentration not given; 20 mM Tris-HCl pH 7.5, 25 °C; similar to WT.

Series [13] deals with RhoBAST A33C (RNA, aptamer) GGAACCUCCGCGAAAGCGGUGACGGAGAGGCGCAAGGUUAACCGCCUCAGGUUCC
Nature of the series: ITC. The conditions noted are these: K+ 100 mM; Mg2+ concentration not given; 20 mM Tris-HCl pH 7.5, 25 °C; similar to WT.

Series [14] deals with RhoBAST C8G (RNA, aptamer) GGAACCUGCGCGAAAGCGGUGAAGGAGAGGCGCAAGGUUAACCGCCUCAGGUUCC
Nature of the series: ITC. The conditions noted are these: K+ 100 mM; Mg2+ concentration not given; 20 mM Tris-HCl pH 7.5, 25 °C; affinity not prominently reduced.

Series [15] has as its system RhoBAST G37A (RNA, aptamer) GGAACCUCCGCGAAAGCGGUGAAGGAAAGGCGCAAGGUUAACCGCCUCAGGUUCC
Kind of series: ITC. The conditions noted are these: K+ 100 mM; Mg2+ concentration not given; 20 mM Tris-HCl pH 7.5, 25 °C; affinity not prominently reduced.

Series [16] has as its system RhoBAST ∆U7 (RNA, aptamer) GGAACCCCGCGAAAGCGGUGAAGGAGAGGCGCAAGGUUAACCGCCUCAGGUUCC
Nature of the series: ITC. The conditions noted are these: K+ 100 mM; Mg2+ concentration not given; 20 mM Tris-HCl pH 7.5, 25 °C; affinity not prominently reduced.

Series [17] has as its system RhoBAST G31C (RNA, aptamer) GGAACCTCCGCGAAAGCGGUCAAGGAGAGGCGCAAGGUUAACCGCCUCAGGUUCC
Nature of the series: ITC. The conditions noted are these: K+ 100 mM; Mg2+ concentration not given; 20 mM Tris-HCl pH 7.5, 25 °C; 100 μM TMR-DN titrated into 10 μM RNA.

The subject of series [18] is RhoBAST C52G (RNA, aptamer) GGAACCTCCGCGAAAGCGGUGAAGGAGAGGCGCAAGGUUAAGCGCCUCAGGUUCC
Nature of the series: ITC. The conditions noted are these: K+ 100 mM; Mg2+ concentration not given; 20 mM Tris-HCl pH 7.5, 25 °C; 100 μM TMR-DN titrated into 10 μM RNA.

For series [19], the system named is RhoBAST G35C/C52G (RNA, aptamer) GGAACCTCCGCGAAAGCGGUGAAGCAGAGGCGCAAGGUUAAGCGCCUCAGGUUCC
Nature of the series: ITC. The conditions noted are these: K+ 100 mM; Mg2+ concentration not given; 20 mM Tris-HCl pH 7.5, 25 °C; 100 μM TMR-DN titrated into 10 μM RNA.

Series [20] relates to RhoBAST G35A (RNA, aptamer) GGAACCTCCGCGAAAGCGGUGAAGAAGAGGCGCAAGGUUAACCGCCUCAGGUUCC
Kind of series: ITC. The conditions noted are these: K+ 100 mM; Mg2+ concentration not given; 20 mM Tris-HCl pH 7.5, 25 °C; 100 μM TMR-DN titrated into 10 μM RNA.

Series [21] has as its system RhoBAST G47C (RNA, aptamer) GGAACCUCCGCGAAAGCGGUGAAGGAGAGGCGCAAGCUUAACCGCCUCAGGUUCC
Nature of the series: ITC. The conditions noted are these: K+ 100 mM; Mg2+ concentration not given; 20 mM Tris-HCl pH 7.5, 25 °C; 100 μM TMR-DN titrated into 10 μM RNA.

For series [22], the system named is RhoBAST L2-U1 (L2'-U1; RhoBAST-U1A Loop) (RNA, aptamer) GGAACCUCCGCCCAUUGCACUCCGGGCGGUGAAGGAGAGGCGCAAGGUUAACCGCCUCAGGUUCC
Kind of series: X-ray crystal structure, 2.75 Å. The conditions noted are these: Mg2+; co-crystal with U1A protein.

For series [23] the test system is unchanged. Kind of series: binding assay in Supplementary Fig. 1b. The conditions noted are these: K+ 100 mM, Mg2+ 10 mM assumed; 20 mM Tris-HCl pH 7.5, 25 °C, nM inferred from ΔG high affinity as wild type.
Series [24] concerns RhoBAST L3'-U1 (RNA, aptamer) GGAACCUCCGCGAAAGCGGUGAAGGAGAGGCCAUUGCACUCCGGCCUCAGGUUCC
Kind of series: binding assay in Supplementary Fig. 1b.

Series [25] has as its target U1A (U1 RNA-binding protein, co-crystallization chaperone) (human, UniProt P09012 1-102). Kind of series: ITC; TMR-DN presence in this assay not stated; ITC: 20 mM Tris-HCl pH 7.5, 100 mM KCl, 0-10 mM MgCl2, 25 C (described for RNA-fluorophore titrations; U1A conditions not separately given). The conditions noted are these: protein: recombinant; four-way junction; U1A hairpin loop. (ITC needs no label: the signal is the heat of the interaction.)

U1A (U1 RNA-binding protein, co-crystallization chaperone), sequence (P09012 1-102): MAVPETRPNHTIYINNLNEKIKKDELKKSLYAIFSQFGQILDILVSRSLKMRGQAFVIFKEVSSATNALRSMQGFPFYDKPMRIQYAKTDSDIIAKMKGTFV

For `CN(C)c1ccc2c(-c3ccc(C(=O)NCCOCCOCCNc4ccc([N+](=O)[O-])cc4[N+](=O)[O-])cc3C(=O)[O-])c3ccc(=[N+](C)C)cc-3oc2c1`, the dissociation constant (KD) is ~ 24 nM in series [1]; 3590 nM in series [2]; 1060 nM in [3]; 1600 nM in series [4]; 1400 nM in [5]; 976 nM in [6]. Besides, the KD in series [7] was 122 nM; in [8], 217 nM; in [9] it was 931 nM; in series [10], 45.5 nM; in series [11], 3.51 µM; in series [12] it was 35.1 nM. In addition, the KD in series [13] is 65.5 nM; in series [14], 47 nM; in series [15], 83 nM; in series [16] it was 56.9 nM; in series [23], 35.5 ± 5.69 nM. The binding entry in series [17] is listed as “no”; in series [18], “no”; in series [19] it was “no”; in series [20] it was “no”; in series [21] it was “no”; in [22], “yes”. Moreover, the binding result in series [24] was “no”.

B1: RhoBAST-U1A Loop (L2'-U1) (structured_RNA)
RNA: GGAACCUCCGCCCAUUGCACUCCGGGCGGUGAAGGAGAGGCGCAAGGUUAACCGCCUCAGGUUCC
For B1, the dissociation constant Kd in series [25] amounted to 7.94 ± 1.74 nM.
